The text below walks through data of the NIST ThermoML archive (doi:10.1016/j.tca.2013.04.003).

The data set can be described thus: molar enthalpy of vaporization or sublimation. To be noted: Liquid, TGA.

Numbers after ± are expanded uncertainties.

For the molecule `CCn1cc[n+](C)c1.[Cl-]` [1-ethyl-3-methylimidazolium chloride], under “432.1 K”, the molar enthalpy is 30.3 ± 0.717 kcal/mol.
As for `CCCCCCn1cc[n+](C)c1.[Cl-]` [1-hexyl-3-methylimidazolium chloride], the molar enthalpy (432.4 K) amounted to 34.4 ± 0.717 kcal/mol.
